Source: patent US20260184662A1, “COMPOSITE OF ACID AND SALT, AND PREPARATION METHOD THEREFOR” (NANJING NUTRABUILDING BIO-TECH CO., LTD., priority 2022, published 2026)
Like-named read-outs stand apart in the source and are kept apart here.

Key:
[1] = Stability of complexes at 30-80° C.; format: physicochemical
Source text: For R-3-hydroxybutyric acid, potassium R-3-hydroxybutyrate, mixture of R-3-hydroxybutyric acid and potassium R-3-hydroxybutyrate, and R-3-hydroxybutyric acid·potassium R-3-hydroxybutyrate complex of Example 1, […]
For 3-hydroxybutyric acid, potassium 3-hydroxybutyrate, mixture of 3-hydroxybutyric acid and potassium 3-hydroxybutyrate, and 3-hydroxybutyric acid·potassium 3-hydroxybutyrate complex of Example 7, […]
For S-3-hydroxybutyric acid, potassium S-3-hydroxybutyrate, mixture of S-3-hydroxybutyric acid and potassium S-3-hydroxybutyrate, and S-3-hydroxybutyric acid·potassium S-3-hydroxybutyrate complex of Example 13, […]
For R-3-hydroxybutyric acid, calcium R-3-hydroxybutyrate, mixture of R-3-hydroxybutyric acid and calcium R-3-hydroxybutyrate, and R-3-hydroxybutyric acid·calcium R-3-hydroxybutyrate complex of Example 19, […]
For 3-hydroxybutyric acid, calcium 3-hydroxybutyrate, mixture of 3-hydroxybutyric acid and calcium 3-hydroxybutyrate, and 3-hydroxybutyric acid·calcium 3-hydroxybutyrate complex of Example 25, […]
For S-3-hydroxybutyric acid, calcium S-3-hydroxybutyrate, mixture of S-3-hydroxybutyric acid and calcium S-3-hydroxybutyrate, and S-3-hydroxybutyric acid·calcium S-3-hydroxybutyrate complex of Example 31, […]
For R-3-hydroxybutyric acid, magnesium R-3-hydroxybutyrate, mixture of R-3-hydroxybutyric acid and magnesium R-3-hydroxybutyrate, and R-3-hydroxybutyric acid·magnesium R-3-hydroxybutyrate complex of Example 37, […]
For 3-hydroxybutyric acid, magnesium 3-hydroxybutyrate, mixture of 3-hydroxybutyric acid and magnesium 3-hydroxybutyrate, and 3-hydroxybutyric acid·magnesium 3-hydroxybutyrate complex of Example 43, […]
For S-3-hydroxybutyric acid, magnesium S-3-hydroxybutyrate, mixture of S-3-hydroxybutyric acid and magnesium S-3-hydroxybutyrate, and S-3-hydroxybutyric acid·magnesium S-3-hydroxybutyrate complex of Example 49, […]
For R-3-hydroxypentanoic acid, sodium R-3-hydroxypentanoate, mixture of R-3-hydroxypentanoic acid and sodium R-3-hydroxypentanoate, and R-3-hydroxypentanoic acid·sodium R-3-hydroxypentanoate complex of Example 55, […]
For 3-hydroxypentanoic acid, sodium 3-hydroxypentanoate, mixture of 3-hydroxypentanoic acid and sodium 3-hydroxypentanoate, and 3-hydroxypentanoic acid·sodium 3-hydroxypentanoate complex of Example 61, […]
For S-3-hydroxypentanoic acid, sodium S-3-hydroxypentanoate, mixture of S-3-hydroxypentanoic acid and sodium S-3-hydroxypentanoate, and S-3-hydroxypentanoic acid·sodium S-3-hydroxypentanoate complex of Example 67, […]

[2] = Determination of moisture contents with KF moisture meter at different time points; format: physicochemical; conditions: temperature 23° C., humidity 92.5%
Source text: (§1) For R-3-hydroxybutyric acid, potassium R-3-hydroxybutyrate, mixture of R-3-hydroxybutyric acid and potassium R-3-hydroxybutyrate, and R-3-hydroxybutyric acid·potassium R-3-hydroxybutyrate complex of Example 1, under a certain condition, KF moisture meter was used to determine the moisture contents at different time points.
as §1, with “3-hydroxybutyric” for “R-3-hydroxybutyric”, “3-hydroxybutyrate,” for “R-3-hydroxybutyrate,”, “3-hydroxybutyrate” for “R-3-hydroxybutyrate”, “7,” for “1,”
as §1, with “S-3-hydroxybutyric” for “R-3-hydroxybutyric”, “S-3-hydroxybutyrate,” for “R-3-hydroxybutyrate,”, “S-3-hydroxybutyrate” for “R-3-hydroxybutyrate”, “13,” for “1,”
as §1, with “calcium” for “potassium”, “acid·calcium” for “acid·potassium”, “19,” for “1,”
(§2) For 3-hydroxybutyric acid, calcium 3-hydroxybutyrate, mixture of 3-hydroxybutyric acid and calcium 3-hydroxybutyrate, and 3-hydroxybutyric acid·calcium 3-hydroxybutyrate complex of Example 25, under a certain condition, KF moisture meter was used to determine the moisture contents at different time points.
as §2, with “S-3-hydroxybutyric” for “3-hydroxybutyric”, “S-3-hydroxybutyrate,” for “3-hydroxybutyrate,”, “S-3-hydroxybutyrate” for “3-hydroxybutyrate”, “31,” for “25,”
as §1, with “magnesium” for “potassium”, “acid·magnesium” for “acid·potassium”, “37,” for “1,”
as §2, with “magnesium” for “calcium”, “acid·magnesium 3-hydroxy butyrate” for “acid·calcium 3-hydroxybutyrate”, “43,” for “25,”
For S-3-hydroxybutyric acid, magnesium S-3-hydroxybutyrate, mixture of S-3-hydroxybutyric acid and magnesium S-3-hydroxybutyrate, and S-3-hydroxybutyric acid·magnesium S-3-hydroxybutyrate complex of Example 49, under a certain condition, KF moisture meter was used to determine the moisture contents at different time points.
(§3) For R-3-hydroxypentanoic acid, sodium R-3-hydroxypentanoate, mixture of R-3-hydroxypentanoic acid and sodium R-3-hydroxypentanoate, and R-3-hydroxypentanoic acid·sodium R-3-hydroxypentanoate complex of Example 55, under a certain condition, KF moisture meter was used to determine the moisture contents at different time points.
as §3, with “3-hydroxypentanoic” for “R-3-hydroxypentanoic”, “3-hydroxypentanoate,” for “R-3-hydroxypentanoate,”, “3-hydroxypentanoate” for “R-3-hydroxypentanoate”, “61,” for “55,”
as §3, with “S-3-hydroxypentanoic” for “R-3-hydroxypentanoic”, “S-3-hydroxypentanoate,” for “R-3-hydroxypentanoate,”, “S-3-hydroxypentanoate” for “R-3-hydroxypentanoate”, “67,” for “55,”

SMILES | Stability ([1]; 30° C.) | Stability ([1]; 40° C.) | Stability ([1]; 50° C.) | Stability ([1]; 60° C.) | Stability ([1]; 80° C.) | moisture content (%) ([2]; 30 min) | moisture content (%) ([2]; 1 h) | moisture content (%) ([2]; 2 h) | moisture content (%) ([2]; 4 h) | moisture content (%) ([2]; 6 h) | moisture content (%) ([2]; 7 h) | moisture content (%) ([2]; 11 h) | moisture content (%) ([2]; 22 h) | Stability [1] | Stability ([1]; 70° C.)
C[C@@H](O)CC(=O)O.C[C@@H](O)CC(=O)[O-].C[C@@H](O)CC(=O)[O-].[Ca+2] [R-3-hydroxybutyric acid·calcium R-3-hydroxybutyrate] | unchanged | unchanged | unchanged | unchanged | melted | 0.54 | 1.02 | 1.96 | 3.26 | 4.79 | 5.39 | 8.65 | 14.45 | – | –
C[C@@H](O)CC(=O)O.C[C@@H](O)CC(=O)[O-].C[C@@H](O)CC(=O)[O-].[Mg+2] [R-3-hydroxybutyric acid·magnesium R-3-hydroxybutyrate] | unchanged | unchanged | unchanged | unchanged | melted | 0.57 | 0.92 | 1.76 | 3.16 | 4.59 | 5.69 | 8.65 | 14.45 | – | –
C[C@@H](O)CC(=O)O.C[C@@H](O)CC(=O)[O-].[K+] [R-3-hydroxybutyric acid·potassium R-3-hydroxybutyrate] | unchanged | unchanged | unchanged | unchanged | melted | 0.64 | 1.24 | 1.89 | 3.66 | 5.89 | 6.78 | 9.77 | 19.45 | – | –
CC[C@@H](O)CC(=O)O.CC[C@@H](O)CC(=O)[O-].[Na+] [R-3-hydroxypentanoic acid·sodium R-3-hydroxypentanoate] | – | – | – | – | – | 0.45 | 0.85 | 1.63 | 2.72 | 4.08 | 4.49 | 7.21 | 14.54 | unchanged | –
C[C@H](O)CC(=O)O [S-3-hydroxybutyric acid] | unchanged | – | melted | melted | melted | 1.23 | 2.28 | 4.05 | 6.32 | 9.53 | 10.62 | 17.08 | 32.95 | – | melted
C[C@H](O)CC(=O)O.C[C@H](O)CC(=O)[O-].C[C@H](O)CC(=O)[O-].[Ca+2] [S-3-hydroxybutyric acid·calcium S-3-hydroxybutyrate] | unchanged | unchanged | unchanged | unchanged | melted | 0.52 | 0.98 | 1.88 | 3.05 | 4.47 | 5.22 | 8.41 | 13.98 | – | –
C[C@H](O)CC(=O)O.C[C@H](O)CC(=O)[O-].C[C@H](O)CC(=O)[O-].[Mg+2] [S-3-hydroxybutyric acid·magnesium S-3-hydroxybutyrate] | unchanged | unchanged | unchanged | unchanged | melted | 0.58 | 0.98 | 1.79 | 3.16 | 4.58 | 5.64 | 8.86 | 14.74 | – | –
C[C@H](O)CC(=O)O.C[C@H](O)CC(=O)[O-].[K+] [S-3-hydroxybutyric acid·potassium S-3-hydroxybutyrate] | unchanged | unchanged | unchanged | unchanged | melted | 0.72 | 1.34 | 196 | 3.72 | 5.99 | 6.82 | 9.83 | 18.28 | – | –
CC[C@H](O)CC(=O)O.CC[C@H](O)CC(=O)[O-].[Na+] [S-3-hydroxypentanoic acid·sodium S-3-hydroxypentanoate] | – | – | – | – | – | 0.59 | 1.15 | 1.54 | 2.73 | 3.99 | 4.43 | 7.03 | 14.11 | unchanged | –
CCC(O)CC(=O)[O-].[Na+] (stereo not shown) [Sodium 3-hydroxypentanoate, sodium 3-hydroxypentanoate] | – | – | – | – | – | 0.96 | 1.83 | 3.02 | 4.46 | 6.28 | 6.96 | 10.72 | 20.79 | unchanged | –
CC[C@@H](O)CC(=O)[O-].[Na+] [Sodium R-3-hydroxypentanoate, sodium R-3-hydroxypentanoate] | – | – | – | – | – | 0.87 | 1.68 | 2.83 | 4.36 | 6.13 | 6.70 | 10.57 | 20.57 | unchanged | –
